# Patent EP0223143A2, “Analogs of atrial natriuretic peptides” (CALIFORNIA BIOTECHNOLOGY, INC., priority 1985, dated 1987)
# “Also recorded” adds a separate entry of the source. Where a SMILES comes first, the peptide text is derived from it. Bridges are numbered along the chain shown (N, C = ends). Where no end group is shown, it is not given here. [ ]: non-standard residue; d: D form. The star is where a group is joined. Phenylacetyl(4-Ph) = O=C(Cc1ccc(-c2ccccc2)cc1)*; Acetyl(2-naphthyloxy) = O=C(COc1ccc2ccccc2c1)*; Acetyl(2-naphthyl) = O=C(Cc1ccc2ccccc2c1)*
# Key:
# [1] = test system: specific receptor sites on BASM or BAE cells; assay: competitive displacement receptor binding assay (Tables IA-IE); design: species or system bovine; details: statements in words on Tables IA-IE; displacement of [^125I]-rANP(126-150)
# Text: (§1) An assay has been developed, generally in accordance with the disclosure of Schenk, supra, and Scarborough, R.M. et al., J. Biol. Chem. 261:12960-12964 (1986), which evaluates the ability of ANP analogs to compete with a labeled native ANP for binding to cultured BASM and BAE cells. This native ANP, having the amino acid sequence: [drawing 103] was iodinated on the Carboxy-terminal Y residue and is identified as […]. Analogous "competitive displacement" receptor binding assays are considered commonplace in the art for examining specific ligand-receptor interactions.
# (§2) Assuming these ANP analogs act at one or more ANP receptor sites, then increased receptor affinity should reflect increased biological potency.
# [2] = test system: anesthetized rats; assay: diuresis in anesthetized rats; format: in vivo; details: compared with baseline, Figure 2
# Description: In one set of examples, cannulae were placed in the left and right ureters and femoral vein of anesthetized rats and urine was collected from the ureters. Analog peptides were administered via the femoral vein. Prior to infusing the analog peptides, saline was infused for 30 minutes, urine was collected for 6 five minutes baseline periods and urine volume was determined gravimetrically. Following these baseline collection periods, various analog peptides were infused for 30 or 60 minutes and urine volume was measured in five minute periods during infusion and for 60 minutes following infusion (at which time rats were returned to saline). Data was examined by averaging urine flow rates for six five- minute baseline control periods immediately preceding infusion, and comparing values during and after administration of peptides with the "baseline" control values. Responses to peptides are thus evaluated and plotted as the percent of baseline control responses. Specific examples are shown in Figures 2A-H. The error bars at the beginning of the graphs represent baseline values ± standard deviations. Responses to peptides that are substantially above baseline ± SD can thus be interpreted as being statistically significant increases.
# [3] = test system: pentobarbital anesthetized dogs; assay: diuresis and natriuresis in anesthetized dogs; format: in vivo; details: vs saline controls
# Description: In these examples, cannulae were placed in the left and right ureters and femoral vein of anesthetized dogs and urine was collected from the ureters. Analog peptides were administered via the femoral vein. Prior to infusing analog peptides, saline was infused for 30 minutes and urine was then collected for three ten minute collection periods. Urine volume was determined gravimetrically and urine sodium was determined photometrically.
# Following these three baseline collection periods, the selected analog peptides were infused for 60 minutes and urinary flow was measured for an additional 60 minutes following infusion. During infusion (60 minutes) and recovery (60 minutes), ten minute collection periods were obtained. Control animals which received only saline were studied in parallel.
# [4] = molecular target: T1, BASM cell-associated receptors (Bos taurus, UniProt P10730); assay: competitive displacement receptor binding assay, BASM cells (Figure 1); design: species or system bovine; details: 0.5 nM [^125I]-rANP(126-150), increasing concentrations of unlabeled peptide
# T1 construct: endogenous in cells; host or cells: cultured BASM cells
# T1 sequence (P10730 42-537): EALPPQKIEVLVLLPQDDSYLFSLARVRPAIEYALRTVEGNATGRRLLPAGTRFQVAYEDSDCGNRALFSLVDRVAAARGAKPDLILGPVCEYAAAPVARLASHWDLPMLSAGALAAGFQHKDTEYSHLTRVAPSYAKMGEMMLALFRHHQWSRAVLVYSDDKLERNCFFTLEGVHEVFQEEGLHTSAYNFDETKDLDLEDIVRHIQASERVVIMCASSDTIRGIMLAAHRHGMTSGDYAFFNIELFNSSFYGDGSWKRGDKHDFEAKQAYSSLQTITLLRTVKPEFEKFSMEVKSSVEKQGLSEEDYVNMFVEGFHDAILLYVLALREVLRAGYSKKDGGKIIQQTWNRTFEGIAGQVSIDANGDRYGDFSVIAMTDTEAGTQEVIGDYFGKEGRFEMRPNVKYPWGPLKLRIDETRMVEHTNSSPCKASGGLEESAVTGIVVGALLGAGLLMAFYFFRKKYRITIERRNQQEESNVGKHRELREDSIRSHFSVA
# Text: as §1, §2
# [5] = infused at 1 µg/kg/minute for 60 minutes
# [6] = infused at 3 µg/kg/minute for 60 minutes
compound,measurement,setting,value
"CC[C@H](C)[C@H](NC(=O)[C@H](CCCNC(=N)N)NC(=O)[C@@H](CC(=O)O)NC(=O)[C@@H](NC(=O)[C@H](CCCNC(=N)N)NC(=O)CNC(=O)CNC(=O)[C@H](Cc1ccccc1)NC(=O)[C@H](C)N)[C@@H](C)CC)C(=O)NCC(=O)N[C@@H](C)C(N)=O [AP303, A-F-G-G-R-I-[D-D]-R-I-G-A-NH,] (H-AFGGRI[dD]RIGA-NH2)",receptor binding affinity (Ki(app)),[1],inactive
"CC[C@H](C)[C@H](NC(=O)[C@H](CCCNC(=N)N)NC(=O)[C@H](CC(=O)O)NC(=O)[C@@H](NC(=O)[C@H](CCCNC(=N)N)NC(=O)CNC(=O)[C@@H](C)NC(=O)COc1ccc2ccccc2c1)[C@@H](C)CC)C(N)=O [AP322, [2-Napthoxyacetyl]-[D-A]-G-R-I-D-R-I-NH2] ({Acetyl(2-naphthyloxy)}-[dA]GRIDRI-NH2)",receptor binding affinity (Ki(app)),[1],greatly diminished activity
"CC[C@H](C)[C@H](NC(=O)[C@H](CCCNC(=N)N)NC(=O)[C@H](CC(=O)O)NC(=O)[C@@H](NC(=O)[C@H](CCCNC(=N)N)NC(=O)CNC(=O)CNC(=O)Cc1ccc(-c2ccccc2)cc1)[C@@H](C)CC)C(N)=O [AP317, [4-Biphenylacetyl]-G-G-R-I-D-R-I-NH2] ({Phenylacetyl(4-Ph)}-GGRIDRI-NH2)",receptor binding affinity (Ki(app)),[1],greatly diminished activity
"CC[C@H](C)[C@H](NC(=O)[C@H](CCCNC(=N)N)NC(=O)[C@H](CC(=O)O)NC(=O)[C@@H](NC(=O)[C@H](CCCNC(=N)N)NC(=O)CNC(=O)CNC(=O)COc1ccc2ccccc2c1)[C@@H](C)CC)C(N)=O [AP319, [2-Napthoxyacetyl]-G-G-R-I-D-R-I-NH2] ({Acetyl(2-naphthyloxy)}-GGRIDRI-NH2)",receptor binding affinity (Ki(app)),[1],high binding affinity
same,urine flow rate (urine volume),[2]; infused at 10 µg/min via femoral vein,significantly increased
"CC[C@H](C)[C@H](NC(=O)[C@H](CCCNC(=N)N)NC(=O)[C@H](CC(=O)O)NC(=O)[C@@H](NC(=O)[C@H](CCCNC(=N)N)NC(=O)CNC(=O)CNC(=O)Cc1ccc2ccccc2c1)[C@@H](C)CC)C(N)=O [AP314, [2-Napthylacetyl]-G-G-R-I-D-R-I-NH2] ({Acetyl(2-naphthyl)}-GGRIDRI-NH2)",receptor binding affinity (Ki(app)),[1],high binding affinity; also recorded: substantial Ki(app)s
same,urinary sodium excretion,[3]; [5],significantly increased
same,urine flow rate (urine volume),[3]; [5],significantly increased
"CC[C@H](C)[C@H](NC(=O)[C@H](CCCNC(=N)N)NC(=O)CNC(=O)CNC(=O)Cc1ccc2ccccc2c1)C(=O)N[C@@H](CC(=O)O)C(=O)N[C@@H](CCCNC(=N)N)C(=O)N[C@H](C(N)=O)C(C)C [AP333, [2-Napthylacetyl]-G-G-R-I-D-R-V-NH2] ({Acetyl(2-naphthyl)}-GGRIDRV-NH2)",receptor binding affinity (Ki(app)),[1],greatly diminished activity
"CC[C@H](C)[C@H](NC(=O)[C@H](CCCNC(=N)N)NC(=O)[C@H](CC(=O)O)NC(=O)[C@@H](NC(=O)[C@@H](CCCNC(=N)N)NC(=O)CNC(=O)CNC(=O)[C@H](Cc1ccccc1)NC(=O)[C@H](C)N)[C@@H](C)CC)C(=O)NCC(=O)N[C@@H](C)C(N)=O [AP301, A-F-G-G-[D-R]-I-D-R-I-G-A-NH2] (H-AFGG[dR]IDRIGA-NH2)",receptor binding affinity (Ki(app)),[1],inactive
"CC[C@H](C)[C@H](NC(=O)[C@H](CCCNC(=N)N)NC(=O)[C@H](CC(=O)O)NC(=O)[C@@H](NC(=O)[C@H](CCCNC(=N)N)NC(=O)CNC(=O)CNC(=O)Cc1ccc2ccccc2c1)[C@@H](C)CC)C(=O)NCC(=O)N[C@@H](C)C(N)=O [AP306, [2-Napthylacetyl]-G-G-R-I-D-R-I-G-A-NH2] ({Acetyl(2-naphthyl)}-GGRIDRIGA-NH2)",receptor binding affinity (Ki(app)),[1],high binding affinity; also recorded: substantial Ki(app)s
same,urinary sodium excretion,[3]; [6],significantly increased
same,urine flow rate (urine volume),[3]; [6],significantly increased
"RIDRIG-NH2 [AP125, R-I-D-R-I-G-NH2]",receptor binding affinity (Ki(app)),[1],inactive
"CC[C@H](C)[C@@H]1NC(=O)[C@H](CCCNC(=N)N)NC(=O)[C@H](CC(=O)O)NC(=O)[C@H]([C@@H](C)CC)NC(=O)[C@H](CCCNC(=N)N)NC(=O)CNC(=O)[C@@H](NC(=O)[C@H](CO)NC(=O)[C@H](CO)NC(=O)[C@@H](N)CCCNC(=N)N)CSSC[C@@H](C(=O)N[C@@H](CC(N)=O)C(=O)N[C@@H](CO)C(=O)N[C@@H](Cc2ccccc2)C(=O)N[C@@H](CCCNC(=N)N)C(=O)N[C@@H](Cc2ccc(O)cc2)C(=O)O)NC(=O)CNC(=O)[C@H](CC(C)C)NC(=O)CNC(=O)[C@H](CO)NC(=O)[C@H](CCC(N)=O)NC(=O)[C@H](C)NC(=O)CNC1=O [AP24, R-S-S-C-G-R-I-D-R-I-G-A-O-S-G-L-G-C-N-S-F-R-Y] (H-RSSCGRIDRIGAQSGLGCNSFRY-OH; disulfide 4-18)",receptor binding affinity (Ki(app)),[1],weaker apparent affinity
(desNH2-F)-G-G-R-I-D-R-I-NH2 [AP132],[^125I]-rANP(126-150) binding to BASM cell-associated receptors,[4],effectively prevent
"CC[C@H](C)[C@H](NC(=O)[C@H](CCCNC(=N)N)NC(=O)CNC(=O)CNC(=O)[C@H](Cc1ccccc1)NC(=O)[C@H](C)N)C(=O)N[C@@H](CC(=O)O)C(=O)N[C@H](CCCNC(=N)N)C(=O)N[C@H](C(=O)NCC(=O)N[C@@H](C)C(N)=O)[C@@H](C)CC [AP304, A-F-G-G-R-I-D-[D-R]-I-G-A-NH2] (H-AFGGRID[dR]IGA-NH2)",receptor binding affinity (Ki(app)),[1],inactive
"GGRIDRIGAA-NH2 [AP105, G-G-R-I-D-R-I-G-A-A-NH2]",receptor binding affinity (Ki(app)),[1],inactive
"AFGGRIDRIGA-NH2 [AP101, A-F-G-G-R-I-D-R-I-G-A-NH2]",[^125I]-rANP(126-150) binding to BASM cell-associated receptors,[4],effectively prevent
same,receptor binding affinity (Ki(app)),[1],substantial Ki(app)s
same,urine flow rate (urine volume),[2]; infused at 5 µg/min via femoral vein,significantly increased
same,urinary sodium excretion,[3]; [6],significantly increased
same,urine flow rate (urine volume),[3]; [6],significantly increased
